Like-named read-outs stand apart in the source and are kept apart here.

Experimental findings from patent publication US20020028836A1, “Potassium channel openers” (priority 2000, published 2002) are described below.

This test concerns tissue strips obtained from Landrace pig bladders. In words: Functional potassium channel opening activity in isolated bladder strips (field-stimulated twitch). The settings on record: for Index: ED50 for P1075 divided by ED50 for the test agonist in a given tissue, averaged; for EC50: amount of agent necessary to cause 50% of the agent's maximal response, read-out: ED50 (the source's name); for Emax / Efficacy (% P1075): maximal efficacy relative to P1075, field stimulation 0.05 Hz, 0.5 ms, 20 volts. As for the experimental part: Compounds were evaluated for functional potassium channel opening activity using tissue strips obtained from Landrace pig bladders.
Landrace pig bladders were obtained from female Landrace pigs of 9-30 kg. Landrace pigs were euthanized with an intraperitoneal injection of pentobarbital solution, Somlethal®, J. A. Webster Inc., Sterling, Mass. The entire bladder was removed and immediately placed into Krebs Ringer bicarbonate solution (composition, mM: NaCl, 120; NaHCO3, 20; dextrose, 11; KCl, 4.7; CaCl2, 2.5; MgSO4, 1.5; KH2PO4, 1.2; K2EDTA, 0.01, equilibrated with 5% CO2/95% O2pH 7.4 at 37° C.). Propranolol (0.004 mM) was included in all of the assays to block β-adrenoceptors. The trigonal and dome portions were discarded. Strips 3-5 mm wide and 20 mm long were prepared from the remaining tissue cut in a circular fashion. The mucosal layer was removed. One end was fixed to a stationary glass rod and the other to a Grass FT03 transducer at a basal preload of 1.0 gram. Two parallel platinum electrodes were included in the stationary glass rod to provide field stimulation of 0.05 Hz, 0.5 milli-seconds at 20 volts. This low frequency stimulation produced a stable twitch response of 100-500 centigrams. Tissues were allowed to equilibrate for at least 60 minutes and primed with 80 mM KCl. A control concentration response curve (cumulative) was generated for each tissue using the potassium channel opener P1075 as the control agonist. […] After a 60 minute rinsing period, a concentration response curve (cumulative) was generated for the test agonist in the same fashion as that used for the control agonist P1075. The maximal efficacy of each compound (expressed as % relative to P1075) is reported. The amount of agent necessary to cause 50% of the agent's maximal response (ED50) was calculated using “ALLFIT” (DeLean et al., Am. J. Physiol., 235, E97 (1980)), hereby incorporated by reference. Agonist potencies were also expressed as an index relative to P1075. The index was calculated by dividing the ED50 for P1075 by the ED50 for the test agonist in a given tissue. Each tissue was used for only one test agonist, and the indices obtained from each tissue were averaged to provide an average index of potency.

Usually Emax stands for the greatest response seen or fitted, relative to the assay's reference. Compound `CC(Cl)(Cl)C(NC(=O)c1cccc(Cl)c1)NC(=NC#N)Nc1ccc(C(F)(F)F)nc1` (stereo not shown) [Example 159, 3-chloro-N-{2,2-dichloro-1-[((cyanoimino){[6-(trifluoromethyl)-3-pyridinyl]amino}methyl)amino]propyl}benzamide] came in with an Index of 0.013. Moreover, for the setting “Sus scrofa”, the EC50 amounted to 7.9 µM and the maximum response (Emax) amounted to 92%.

Turning to `CC(Cl)(Cl)C(NC(=O)c1ccc(Cl)cc1)NC(=NC#N)Nc1cccnc1Cl` (stereo not shown) [Example 168, 4-chloro-N-(2,2-dichloro-1-{[[(2-chloro-3-pyridinyl)amino](cyanoimino)methyl]amino}propyl)benzamide], the Index was determined as 0.064. Moreover, where the note is “Sus scrofa”, the EC50 amounted to 0.89 µM and the maximal effect (Emax) is 92%.

In turn, `CC(Cl)(Cl)C(NC(=O)c1ccc(Cl)cc1)NC(=NC#N)Nc1ccc(F)nc1` (stereo not shown) [Example 180, 4-chloro-N-[2,2-dichloro-1-({(cyanoimino)[(6-fluoro-3-pyridinyl)amino]methyl}amino)propyl]benzamide] gave an Index of 0.040. Moreover, for the setting “Sus scrofa”, the EC50 was 2.3 µM and the Emax is 98%.

Take `CC(Cl)(Cl)C(NC(=O)c1ccc(Cl)cc1)NC(=NC#N)Nc1ccc(Cl)nc1` (single isomer, unassigned; (+)) [Example 162, (+) 4-chloro-N-(2,2-dichloro-1-{[[(6-chloro-3-pyridinyl)amino](cyanoimino)methyl]amino}propyl)benzamide]: the Index was 0.025, the EC50 worked out at 9 µM and the “Efficacy (% P1075)” value turned out to be 87 % P1075.

For `CC(C)(C)C(NC(=O)c1ccc(Cl)cc1)NC(=NC#N)Nc1cnc2ccccc2c1` (stereo not shown) [Example 83, 4-chloro-N-(1-{[(cyanoimino)(3-guinolinylamino)methyl]amino}-2,2-dimethylpropyl)benzamide], the Index amounted to 0.031, the EC50 was determined as 2.8 µM and the “Efficacy (% P1075)” value is on record as 62 % P1075.

Turning to `CC(Cl)(Cl)C(NC(=O)c1ccc(Cl)cc1)NC(=NC#N)Nc1ccc(Cl)nc1` (single isomer, unassigned; (-)) [Example 161, (−) 4-chloro-N-(2,2-dichloro-1-{[[(6-chloro-3-pyridinyl)amino](cyanoimino)methyl]amino}propyl)benzamide], the Index is reported as 0.108, the EC50 worked out at 4 µM and the “Efficacy (% P1075)” value came to 93 % P1075.

For the compound `CC(C)(C)CC(NC(=O)c1ccc(Br)cc1)NC(=NS(=O)(=O)C(F)(F)F)Nc1cccnc1` (stereo not shown) [Example 188, 4-bromo-N-{3,3-dimethyl-1-[((3-pyridinylamino){[(trifluoromethyl)sulfonyl]imino}methyl)amino]butyl}benzamide], the Index was 0.020. For the same compound, where the note is “Sus scrofa”, the EC50 was 10 µM and the Emax was found to be 87%.

For `CC(C)(C)CC(NC(=O)c1ccc(Cl)cc1)NC(=NS(=O)(=O)C(F)(F)F)Nc1cccnc1` (stereo not shown) [Example 142, 4-chloro-N-{3,3-dimethyl-1-[((3-pyridinylamino){[(trifluoromethyl)sulfonyl]imino}methyl)amino]butyl}benzamide], the Index is 0.270, the EC50 was 0.6 µM and the “Efficacy (% P1075)” value was 44 % P1075.

As for `CCC(C)(C)N=C(NC#N)Nc1cccnc1` [Example P1075, reference compound], the “stimulated twitch / stimulated contractions of the bladder” value (P1075: 10^−9 to 10^−5 M, cumulative, ½ log increments) is “completely eliminated the stimulated twitch”.

For the compound `CC(Cl)(Cl)C(NC(=O)c1ccc(Cl)cc1)NC(=NC#N)Nc1ccccc1F` (stereo not shown) [Example 175, 4-chloro-N-(2,2-dichloro-1-{[(cyanoimino)(2-fluoroanilino)methyl]amino}propyl)benzamide], the Index is on record as 0.148. Where the note is “Sus scrofa”, the EC50 came out at 1.5 µM and the maximum response (Emax) was determined as 54%.

With `CC(C)(C)CC(NC(=O)c1ccc(Cl)cc1)NC(=NS(=O)(=O)C(F)(F)F)Nc1cccnc1` (single isomer, unassigned; (-)) [Example 187, (−) 4-chloro-N-{3,3-dimethyl-1-[((3-pyridinylamino){[(trifluoromethyl)sulfonyl]imino}methyl)amino]butyl}benzamide], the Index was 0.077, the EC50 is 7.8 µM and the “Efficacy (% P1075)” value came out at 52 % P1075.

`CC(Cl)(Cl)C(NC(=O)c1cccc(Cl)c1)NC(=NC#N)Nc1cccnc1` (stereo not shown) [Example 119, 3-chloro-N-(2,2-dichloro-1-{[(cyanoimino)(3-pyridinylamino)methyl]amino}propyl)benzamide] registered an Index of 0.939. Besides, under “Sus scrofa”, the EC50 was 3.4 µM and the maximal response (Emax) was determined as 78%.

As for `CC(Cl)(Cl)C(NC(=O)c1cccc(Cl)c1)NC(=NC#N)Nc1cccc(F)c1` (stereo not shown) [Example 169, 3-chloro-N-(2,2-dichloro-1-{[(cyanoimino)(3-fluoroanilino)methyl]amino}propyl)benzamide], the Index stood at 0.231. For the setting “Sus scrofa”, the EC50 came out at 5 µM and the Emax is 75%.

For `Cc1cccc(C(=O)NC(NC(=NC#N)Nc2ccc(Cl)nc2)C(C)(Cl)Cl)c1` (stereo not shown) [Example 170, N-(2,2-dichloro-1-{[[(6-chloro-3-pyridinyl)amino](cyanoimino)methyl]amino}propyl)-3-methylbenzamide], the Index amounted to 0.012. Further, where the note is “Sus scrofa”, the EC50 stood at 4.2 µM and the maximal effect (Emax) came out at 100%.

For `CC(Cl)(Cl)C(NC(=O)c1ccc(Cl)cc1)NC(=NC#N)Nc1cccnc1` (stereo not shown) [Example 116, 4-chloro-N-(2,2-dichloro-1-{[(cyanoimino)(3-pyridinylamino)methyl]amino}propyl)benzamide], the Index is recorded as 0.028, the EC50 stood at 3.3 µM and the “Efficacy (% P1075)” value was 94 % P1075.

Take `CC(Cl)(Cl)C(NC(=O)c1ccc(Cl)cc1)NC(=NC#N)Nc1cccnc1` (single isomer, unassigned; (+)) [Example 118, (+) 4-chloro-N-(2,2-dichloro-1-{[(cyanoimino)(3-pyridinylamino)methyl]amino}propyl)benzamide]: the Index came to 0.006, the EC50 is 22 µM and the “Efficacy (% P1075)” value is 69 % P1075.

On to `CC(C)(C)CC(NC(=O)c1ccc(Cl)cc1)NC(=NS(=O)(=O)C(F)(F)F)Nc1cccnc1` (single isomer, unassigned; (+)) [Example 186, (+) 4-chloro-N-{3,3-dimethyl-1-[((3-pyridinylamino){[(trifluoromethyl)sulfonyl]imino}methyl)amino]butyl}benzamide], for which the Index is 2.1, the EC50 was found to be 1.2 µM and the “Efficacy (% P1075)” value was determined as 66 % P1075.

Regarding `COc1ncccc1NC(=NC#N)NC(NC(=O)c1cccc(Cl)c1)C(C)(Cl)Cl` (stereo not shown) [Example 174, 3-chloro-N-[2,2-dichloro-1-({(cyanoimino)[(2-methoxy-3-pyridinyl)amino]methyl}amino)propyl]benzamide], the Index was 2.2. Further, where the note is “Sus scrofa”, the EC50 was 1.2 µM and the maximum response (Emax) came out at 34%.

Consider `CC(C)(C)CC(NC(=O)c1ccc(Cl)cc1)NC(=N[N+](=O)[O-])Nc1cccnc1` (single isomer, unassigned; (+)) [Example 125, (+) 4-chloro-N-(1-{[(nitroimino)(3-pyridinylamino)methyl]amino}-3,3-dimethylbutyl)benzamide], for which the Index is reported as 0.030, the EC50 is 9.2 µM and the “Efficacy (% P1075)” value was found to be 92 % P1075.

In the case of `CC(Cl)(Cl)C(NC(=O)c1ccc(Cl)cc1)NC(=NC#N)Nc1cccnc1` (single isomer, unassigned; (-)) [Example 117, (−) 4-chloro-N-(2,2-dichloro-1-{[(cyanoimino)(3-pyridinylamino)methyl]amino}propyl)benzamide], the Index amounted to 0.030, the EC50 stood at 5.8 µM and the “Efficacy (% P1075)” value amounted to 79 % P1075.

Regarding `CC(Cl)(Cl)C(NC(=O)c1cccc(F)c1)NC(=NC#N)Nc1ccc(Cl)nc1` (stereo not shown) [Example 156, N-(2,2-dichloro-1-{[[(6-chloro-3-pyridinyl)amino](cyanoimino)methyl]amino}propyl)-3-fluorobenzamide], the Index is listed as 0.048. Further, where the note is “Sus scrofa”, the EC50 is 4 µM and the Emax turned out to be 93%.
